According to patent US11040975B2, “Carbocyclic nucleoside reverse transcriptase inhibitors” (Merck Sharp & Dohme Corp., priority 2017, dated 2021):

These compounds were tested on HIV-1 (H9IIIB virus) (assay: Viking assay: antiviral potency in a multiple round HIV-1 infection assay (MT4-GFP cells)). Conditions: Human immunodeficiency virus 1, MT4-GFP cells, 10% normal human serum; inhibition of reproductive ratio R0; read-out: Viking, IC50 (10% NHS).
Assay type: cell-based
Description: Assessing Antiviral Potency in a Multiple Round HIV-1 Infection Assay.
HIV-1 replication was monitored using MT4-gag-GFP clone D3 (hereafter designate MT4-GFP), which are MT-4 cells modified to harbor a GFP reporter gene, the expression of which is dependent on the HIV-1 expressed proteins tat and rev. Productive infection of an MT4-GFP cell with HIV-1 results in GFP expression approximately 24h post-infection.
MT4-GFP cells were maintained at 37° C./5% CO2/90% relative humidity in RPMI 1640 supplemented with 10% fetal bovine serum, 100 U/mL penicillin/streptomycin, and 400 μg/mL G418 to maintain the reporter gene. For infections, MT4-GFP cells were placed in the same medium lacking G418 and infected overnight with H9IIIB virus at an approximate multiplicity of infection of 0.01 in the same incubation conditions. Cells were then washed and re-suspended in either RPMI 1640 containing 10% or 50% normal human serum at 1.6×10^5 cells/mL. Compound plates were prepared by dispensing compounds dissolved in DMSO into wells of 384 well poly D lysine-coated plates ([…]) using an ECHO acoustic dispenser. Each compound was tested in a 10 point serial 3-fold dilution (typical final concentrations: 8.4 μM-0.43 nM). Controls included no inhibitor (DMSO only) and a combination of three antiviral agents (efavirenz, indinavir, and an integrase strand transfer inhibitor at final concentrations of 4 μM each). Cells were added (50 μL/well) to compound plates and the infected cells were maintained at 37° C./5% CO2/90% relative humidity.
Infected cells were quantified at two time points, ˜48h and ˜72h post-infection, by counting the number of green cells in each well using an Acumen eX3 scanner. The increase in the number of green cells over ˜24h period gives the reproductive ratio, R0, which is typically 5-15 and has been shown experimentally to be in logarithmic phase (data not shown). Inhibition of R0 is calculated for each well, and IC50s determined by non-linear 4-parameter curve fitting.

Row | Structure (SMILES) | IC50
1 | C#C[C@]1(CO[P@@](=O)(N[C@@H](C)C(=O)OC(C)C)Oc2ccccc2)C[C@@H](n2cnc3c(OCC)nc(N)nc32)C[C@@H]1O (mixture of isomers) [Example 39A and 39B, Isopropyl ((S)-(((1S,2S,4R)-4-(2-amino-6-ethoxy-9H-purin-9-yl)-1-ethynyl-2-hydroxycyclopentyl)methoxy)(phenoxy)phosphoryl)-L-alaninate and Isopropyl ((S)-(((1R,2R,4S)-4-(2-amino-6-ethoxy-9H-purin-9-yl)-1-ethynyl-2-hydroxycyclopentyl)methoxy)(phenoxy)phosphoryl)-L-alaninate] | 0.0271 µM
2 | C#C[C@]1(CO)C[C@@H](n2cnc3c(Cl)nc(F)nc32)C[C@@H]1O (racemic) [Example (+/−) 12, (1S,2S,4R)-4-(6-chloro-2-fluoro-9H-purin-9-yl)-2-ethynyl-2-(hydroxymethyl)cyclopentan-1-ol and (1R,2R,4S)-4-(6-chloro-2-fluoro-9H-purin-9-yl)-2-ethynyl-2-(hydroxymethyl)cyclopentan-1-ol] | > 42 µM
3 | C#C[C@]1(CO)C[C@@H](n2ccc3c(Cl)nc(Cl)nc32)C[C@@H]1O (racemic) [Example (+/−) 21, (1S,2S,4R)-4-(2,4-dichloro-7H-pyrrol[2,3-d]pyrimidin-7-yl)-2-ethynyl-2-(hydroxymethyl)cyclopentan-1-ol and (1R,2R,4S)-4-(2,4-dichloro-7H-pyrrolo[2,3-d]pyrimidin-7-yl)-2-ethynyl-2-(hydroxymethyl)cyclopentan-1-ol] | > 42 µM
4 | C#C[C@]1(CO)C[C@@H](n2ccc3c(N)nc(Cl)nc32)C[C@@H]1O (racemic) [Example (+/−) 22, (1S,2S,4R)-4-(4-amino-2-chloro-7H-pyrrolo[2,3-d]pyrimidin-7-yl)-2-ethynyl-2-(hydroxymethyl)cyclopentan-1-ol and (1R,2R,4S)-4-(4-amino-2-chloro-7H-pyrrolo[2,3-d]pyrimidin-7-yl)-2-ethynyl-2-(hydroxymethyl)cyclopentan-1-ol] | 22.2 µM
5 | C#C[C@]1(CO)C[C@@H](n2cnc3c(=O)[nH]c(N)nc32)C[C@@H]1O (racemic) [Example (+/−) 26, 2-amino-9-((1R,3S,4S)-3-ethynyl-4-hydroxy-3-(hydroxymethyl)cyclopentyl)-1,9-dihydro-6H-purin-6-one and 2-amino-9-((1S,3R,4R)-3-ethynyl-4-hydroxy-3-(hydroxymethyl)cyclopentyl)-1,9-dihydro-6H-purin-6-one] | 0.195 µM
6 | C#C[C@]1(CO)C[C@@H](n2cnc3c(OCC)nc(N)nc32)C[C@@H]1O (racemic) [Example (+/−) 30, (1S,2S,4R)-4-(2-amino-6-ethoxy-9H-purin-9-yl)-2-ethynyl-2-(hydroxymethyl)cyclopentan-1-ol and (1R,2R,4S)-4-(2-amino-6-ethoxy-9H-purin-9-yl)-2-ethynyl-2-(hydroxymethyl)cyclopentan-1-ol] | 0.614 µM
7 | C#C[C@]1(CO)C[C@@H](n2cc(C)c(=O)[nH]c2=O)C[C@@H]1O (racemic) [Example (+/−) 34, 1-((1R,3S,4S)-3-ethynyl-4-hydroxy-3-(hydroxymethyl)cyclopentyl)-5-methylpyrimidine-2,4(1H,3H)-dione and 1-((1S,3R,4R)-3-ethynyl-4-hydroxy-3-(hydroxymethyl)cyclopentyl)-5-methylpyrimidine-2,4(1H,3H)-dione] | > 42 µM
8 | C#C[C@]1(CO)C[C@@H](n2ccc(N)nc2=O)C[C@@H]1O (racemic) [Example (+/−) 38, 4-amino-1-((1R,3S,4S)-3-ethynyl-4-hydroxy-3-(hydroxymethyl)cyclopentyl)pyrimidin-2(1H)-one and 4-amino-1-((1S,3R,4R)-3-ethynyl-4-hydroxy-3-(hydroxymethyl)cyclopentyl)pyrimidin-2(1H)-one] | > 42 µM
9 | N#C[C@]1(CO)C[C@@H](n2cnc3c(=O)[nH]c(N)nc32)C[C@@H]1O (racemic) [Example (+/−) 61, (1S,2S,4R)-4-(2-amino-6-oxo-1,6-dihydro-9H-purin-9-yl)-2-hydroxy-1-(hydroxymethyl)cyclopentane-1-carbonitrile and (1R,2R,4S)-4-(2-amino-6-oxo-1,6-dihydro-9H-purin-9-yl)-2-hydroxy-1-(hydroxymethyl)cyclopentane-1-carbonitrile] | 0.998 µM
10 | N#C[C@]1(CO)C[C@@H](n2ccc(N)nc2=O)C[C@@H]1O (racemic) [Example (+/−) 65, (1S,2S,4R)-4-(4-amino-2-oxopyrimidin-1(2H)-yl)-2-hydroxy-1-(hydroxymethyl)cyclopentane-1-carbonitrile and (1R,2R,4S)-4-(4-amino-2-oxopyrimidin-1(2H)-yl)-2-hydroxy-1-(hydroxymethyl)cyclopentane-1-carbonitrile] | > 42 µM
11 | Cc1cn([C@H]2C[C@H](O)[C@@](C#N)(CO)C2)c(=O)[nH]c1=O (racemic) [Example (+/−) 69, (1S,2S,4R)-2-hydroxy-1-(hydroxymethyl)-4-(5-methyl-2,4-dioxo-3,4-dihydropyrimidin-1(2H)-yl)cyclopentane-1-carbonitrile and (1R,2R,4S)-2-hydroxy-1-(hydroxymethyl)-4-(5-methyl-2,4-dioxo-3,4-dihydropyrimidin-1(2H)-yl)cyclopentane-1-carbonitrile] | 16 µM
12 | C#C[C@]1(CO)C[C@@H](n2cnc3c(N)nc(Cl)nc32)C[C@@H]1O (single isomer, unassigned) [Example 18B, (1S,2S,4R)-4-(6-amino-2-chloro-9H-purin-9-yl)-2-ethynyl-2-(hydroxymethyl)cyclopentan-1-ol or (1R,2R,4S)-4-(6-amino-2-chloro-9H-purin-9-yl)-2-ethynyl-2-(hydroxymethyl)cyclopentan-1-ol] | 11.7 µM
13 | C#C[C@@]1(CO[P@@](=O)(N[C@@H](C)C(=O)OC(C)C)Oc2ccccc2)C[C@H](n2cnc3c(OCC)nc(N)nc32)C[C@H]1O (single isomer, unassigned) [Example 39A, Isopropyl ((S)-(((1S,2S,4R)-4-(2-amino-6-ethoxy-9H-purin-9-yl)-1-ethynyl-2-hydroxycyclopentyl)methoxy)(phenoxy)phosphoryl)-L-alaninate or Isopropyl ((S)-(((1R,2R,4S)-4-(2-amino-6-ethoxy-9H-purin-9-yl)-1-ethynyl-2-hydroxycyclopentyl)methoxy)(phenoxy)phosphoryl)-L-alaninate] | 0.484 µM
14 | C#C[C@]1(CO[P@@](=O)(N[C@@H](C)C(=O)OC(C)C)Oc2ccccc2)C[C@@H](n2cnc3c(OCC)nc(N)nc32)C[C@@H]1O (single isomer, unassigned) [Example 39B, Isopropyl ((S)-(((1S,2S,4R)-4-(2-amino-6-ethoxy-9H-purin-9-yl)-1-ethynyl-2-hydroxycyclopentyl)methoxy)(phenoxy)phosphoryl)-L-alaninate or Isopropyl ((S)-(((1R,2R,4S)-4-(2-amino-6-ethoxy-9H-purin-9-yl)-1-ethynyl-2-hydroxycyclopentyl)methoxy)(phenoxy)phosphoryl)-L-alaninate] | 0.00593 µM
15 | N#C[C@]1(CO)C[C@@H](n2cnc3c(N)nc(F)nc32)C[C@@H]1O (single isomer, unassigned) [Example 73A, (1S,2S,4R)-4-(6-amino-2-fluoro-9H-purin-9-yl)-2-hydroxy-1-(hydroxymethyl)cyclopentane-1-carbonitrile or (1R,2R,4S)-4-(6-amino-2-fluoro-9H-purin-9-yl)-2-hydroxy-1-(hydroxymethyl)cyclopentane-1-carbonitrile] | > 42 µM
16 | N#C[C@@]1(CO)C[C@H](n2cnc3c(N)nc(F)nc32)C[C@H]1O (single isomer, unassigned) [Example 73B, (1S,2S,4R)-4-(6-amino-2-fluoro-9H-purin-9-yl)-2-hydroxy-1-(hydroxymethyl)cyclopentane-1-carbonitrile or (1R,2R,4S)-4-(6-amino-2-fluoro-9H-purin-9-yl)-2-hydroxy-1-(hydroxymethyl)cyclopentane-1-carbonitrile] | 11 µM

Same assay, conditions: MT4-GFP cells, 10% normal human serum; inhibition of reproductive ratio R0; read-out: Viking, IC50 (10% NHS)

Row | Structure (SMILES) | IC50
17 | C#C[C@]1(CO)C[C@@H](n2cnc3c(=O)[nH]c(N)nc32)C[C@@H]1O (single isomer, unassigned) [Example 26A, 2-amino-9-((lR,3S,4S)-3-ethynyl-4-hydroxy-3-(hydroxymethyl)cyclopentyl)-1,9-dihydro-6H-purin-6-one or 2-amino-9-((1S,3R,4R)-3-ethynyl-4-hydroxy-3-(hydroxymethyl)cyclopentyl)-1,9-dihydro-6H-purin-6-one] | > 42 µM
18 | C#C[C@]1(CO)C[C@@H](n2cnc3c(=O)[nH]c(N)nc32)C[C@@H]1O (single isomer, unassigned) [Example 26B, 2-amino-9-((1R,3S,4S)-3-ethynyl-4-hydroxy-3-(hydroxymethyl)cyclopentyl)-1,9-dihydro-6H-purin-6-one or 2-amino-9-((1S,3R,4R)-3-ethynyl-4-hydroxy-3-(hydroxymethyl)cyclopentyl)-1,9-dihydro-6H-purin-6-one] | 0.142 µM
